Measured values: patent publication US11590109B2 (priority 2016, dated 2023)
pIC50: −log10 of the molar value.

Legend:
H1N1 (influenza virus) [1] = assay: microbe, parasite or virus in culture; settings: Influenza A virus, H1N1, MDCK, H1N1 in host cell MDCK, CPE
H3N2 (influenza virus) [2] = assay: microbe, parasite or virus in culture; settings: Influenza A virus, H3N2, MDCK, H3N2 in host cell MDCK, CPE
H3N2 (influenza virus) [3] = settings: H3N2 in host cell MDCK
in vitro = settings: dog, TC50, host cell MDCK
H1N1 (influenza virus) [4] = settings: H1N1 in host cell MDCK

**Q.** With `CN(/N=C/c1cc(O)c(F)cc1C(=O)O)c1nc(-c2ccccc2Cl)cs1` [Compound 24] as the compound, how does the pIC50 (H1N1 (influenza virus) [1]) read?
**A.** 3.49

**Q.** And the pIC50 (H3N2 (influenza virus) [2])?
**A.** 3.82

**Q.** With `O=C(O)c1ccccc1/C=N/N(CCO)c1nc(-c2ccccc2Cl)cs1` [Compound 7] as the compound, how does the pIC50 (H1N1 (influenza virus) [1]) read?
**A.** 3.66

**Q.** What about the “SI (TC50/IC50)” value (H3N2 (influenza virus) [3]) of the same compound?
**A.** 0.5

**Q.** What about the CC50 (in vitro; H1N1 table) of the same compound?
**A.** 355 µM

**Q.** What about the CC50 (in vitro; H3N2 table) of the same compound?
**A.** 124 µM

**Q.** What about the pIC50 (H3N2 (influenza virus) [2]) of the same compound?
**A.** 3.61

**Q.** And the “SI (TC50/IC50)” value (H1N1 (influenza virus) [4])?
**A.** 1.6

**Q.** With `CN(/N=C/c1cc(N)c(F)cc1C(=O)O)c1nc(-c2ccccc2Cl)cs1` [Compound 25] as the compound, how does the pIC50 (H1N1 (influenza virus) [1]) read?
**A.** 3.31

**Q.** And the pIC50 (H3N2 (influenza virus) [2])?
**A.** 3.13

**Q.** With `O=C(O)c1ccccc1/C=N/Nc1nc(-c2ccc3ccccc3c2)cs1` [Compound 56, (E)-2-((2-(4-(naphthalen-2-yl)thiazol-2-yl)hydrazono)methyl)benzoic Acid] as the compound, how does the pIC50 (H1N1 (influenza virus) [1]) read?
**A.** 2.64

**Q.** And the pIC50 (H3N2 (influenza virus) [2])?
**A.** 3.26

**Q.** With `CCCN(/N=C/c1ccccc1C(=O)O)c1nc(-c2ccccc2Cl)cs1` [Compound 3, (E)-4-(2-chlorophenyl)-2-[1-propyl-2-(2-carboxybenzylidene)hydrazino]thiazole] as the compound, how does the pIC50 (H1N1 (influenza virus) [1]) read?
**A.** 4.91

**Q.** What about the “SI (TC50/IC50)” value (H3N2 (influenza virus) [3]) of the same compound?
**A.** 2.08

**Q.** And the CC50 (in vitro; H1N1 table)?
**A.** 86 µM

**Q.** And the CC50 (in vitro; H3N2 table)?
**A.** 52 µM

**Q.** And the pIC50 (H3N2 (influenza virus) [2])?
**A.** 4.60

**Q.** What about the “SI (TC50/IC50)” value (H1N1 (influenza virus) [4]) of the same compound?
**A.** 7

**Q.** With `NC(=O)c1cccc(-c2csc(N/N=C/c3ccccc3C(=O)O)n2)c1` [Compound 53, (E)-2-((2-(4-(3-aminoformylphenyl)thiazol-2-yl)hydrazono)methyl)benzoic Acid] as the compound, how does the pIC50 (H1N1 (influenza virus) [1]) read?
**A.** 3.11

**Q.** What about the pIC50 (H3N2 (influenza virus) [2]) of the same compound?
**A.** 3.67

**Q.** With `O=C(O)c1ccccc1/C=N/Nc1nc(-c2ccccc2)cs1` [Compound 18, (E)-4-phenyl-2-(2-carboxybenzylidenehydrazino)thiazole] as the compound, how does the pIC50 (H1N1 (influenza virus) [1]) read?
**A.** 4.99

**Q.** What about the “SI (TC50/IC50)” value (H3N2 (influenza virus) [3]) of the same compound?
**A.** 3.3

**Q.** What about the CC50 (in vitro; H1N1 table) of the same compound?
**A.** 124 µM

**Q.** And the CC50 (in vitro; H3N2 table)?
**A.** 148 µM

**Q.** And the pIC50 (H3N2 (influenza virus) [2])?
**A.** 4.35

**Q.** And the “SI (TC50/IC50)” value (H1N1 (influenza virus) [4])?
**A.** 12

**Q.** With `CN(/N=C/c1ccccc1C(=O)O)c1nc(-c2cc(Cl)ccc2Cl)cs1` [Compound 19, (E)-4-(2,5-dichlorophenyl)-2-[1-methyl-2-(2-carboxybenzylidene)hydrazino]thiazole] as the compound, how does the pIC50 (H1N1 (influenza virus) [1]) read?
**A.** 6.25

**Q.** What about the “SI (TC50/IC50)” value (H3N2 (influenza virus) [3]) of the same compound?
**A.** 47.8

**Q.** And the CC50 (in vitro; H1N1 table)?
**A.** 26 µM

**Q.** What about the CC50 (in vitro; H3N2 table) of the same compound?
**A.** 43 µM

**Q.** And the pIC50 (H3N2 (influenza virus) [2])?
**A.** 6.05

**Q.** What about the “SI (TC50/IC50)” value (H1N1 (influenza virus) [4]) of the same compound?
**A.** 46

**Q.** Which results are given for `Cc1ccc(-c2csc(N/N=C/c3ccccc3C(=O)O)n2)cc1` [Compound 54, (E)-2-((2-(4-(p-tolyl)thiazol-2-yl)hydrazono)methyl)benzoic Acid]?
**A.** pIC50 (H1N1 (influenza virus) [1]): 3.95; pIC50 (H3N2 (influenza virus) [2]): 3.49

**Q.** With `CCCC(C)N(/N=C/c1ccccc1C(=O)O)c1nc(-c2ccccc2Cl)c(C)s1` (centres unmarked) [Compound 22, (E)-5-methyl-4-(2-chlorophenyl)-2-[1-(2-amyl)-2-(2-carboxybenzylidene)hydrazino]thiazole] as the compound, how does the pIC50 (H1N1 (influenza virus) [1]) read?
**A.** 4.26

**Q.** And the “SI (TC50/IC50)” value (H3N2 (influenza virus) [3])?
**A.** 1.6

**Q.** And the CC50 (in vitro; H1N1 table)?
**A.** 148 µM

**Q.** What about the CC50 (in vitro; H3N2 table) of the same compound?
**A.** 415 µM

**Q.** And the pIC50 (H3N2 (influenza virus) [2])?
**A.** 3.61

**Q.** And the “SI (TC50/IC50)” value (H1N1 (influenza virus) [4])?
**A.** 2.7

**Q.** What does the source list for `O=C(O)c1ccccc1/C=N/Nc1nc(-c2ccc(-c3ccccc3)cc2)cs1` [Compound 57, (E)-2-((2-(4-(biphenyl-4-yl)thiazol-2-yl)hydrazono)methyl)benzoic Acid]?
**A.** pIC50 (H1N1 (influenza virus) [1]): 2.89; pIC50 (H3N2 (influenza virus) [2]): 2.35

**Q.** With `COc1cccc(-c2csc(N/N=C/c3ccccc3C(=O)O)n2)c1` [Compound 52, (E)-2-((2-(4-(3-methoxyphenyl)thiazol-2-yl)hydrazono)methyl)benzoic Acid] as the compound, how does the pIC50 (H1N1 (influenza virus) [1]) read?
**A.** 2.91

**Q.** And the pIC50 (H3N2 (influenza virus) [2])?
**A.** 3.83

**Q.** With `O=C(O)c1c(F)cccc1/C=N/Nc1nc(-c2ccccc2Cl)cs1` [Compound 58, (E)-2-((2-(4-(2-chlorophenyl)thiazol-2-yl)hydrazono)methyl)-6-fluorobenzoic Acid] as the compound, how does the pIC50 (H1N1 (influenza virus) [1]) read?
**A.** 5.25

**Q.** What about the CC50 (in vitro; H1N1 table) of the same compound?
**A.** 254 µM

**Q.** And the pIC50 (H3N2 (influenza virus) [2])?
**A.** 3.44

**Q.** And the “SI (TC50/IC50)” value (H1N1 (influenza virus) [4])?
**A.** 45

**Q.** With `Cc1sc(N/N=C/c2ccccc2C(=O)O)nc1-c1ccccc1Cl` [Compound 15, (E)-5-methyl-4-(2-chlorophenyl)-2-(2-carboxylbenzylidenehydrazino)thiazole] as the compound, how does the pIC50 (H1N1 (influenza virus) [1]) read?
**A.** 3.91

**Q.** And the CC50 (in vitro; H1N1 table)?
**A.** 412 µM

**Q.** What about the CC50 (in vitro; H3N2 table) of the same compound?
**A.** 88 µM

**Q.** What about the pIC50 (H3N2 (influenza virus) [2]) of the same compound?
**A.** 3.45

**Q.** And the “SI (TC50/IC50)” value (H1N1 (influenza virus) [4])?
**A.** 3.3
